Legend:
PI3Kα = target: T1, PI3Kα (Homo sapiens, UniProt P42336); experiment: In vitro enzyme activity (ADP-Glo) against PI3Kα; assay type: biochemical; conditions: Table 2; ATP 10 μM, PIP2:PS 50 μM
T1 construct: purchased Invitrogen (US)
Protocol: (§1) In vitro enzyme activity experiments were performed to determine the IC50 values of the compounds against PI3K family type I kinases (PI3Kα, PI3Kβ, PI3Kγ, PI3Kδ) and type II kinases (PIK3C2A, PIK3C2B). Protein kinases PI3Kα, PI3Kγ, PI3Kδ, PIK3C2A, and PIK3C2B were all purchased from Invitrogen (US); protein kinase PI3Kβ was purchased from sigma (US); the three substrates PIP2: PS, PI and PI: PS were purchased from Invitrogen (US).
(§2) Protein kinases diluted to a certain concentration, i.e., PI3Kα 5.4 μL (with a final concentration of 0.16 ng/μL), PI3Kβ 5.4 μL (with a final concentration of 6 ng/μL), PI3Kδ 5.4 μL (with a final concentration of 1 ng/μL), PI3Kγ 5.4 μL (with a final concentration of 5 ng/μL), PIK3C2A 5.4 μL (with a final concentration of 5 ng/μL), and PIK3C2B 5.4 μL (with a final concentration of 10 ng/μL) were respectively reacted with 1 μL of the serially diluted drug compounds for 1 hour at room temperature (final drug concentrations were 10 μM, 1 μM, 0.3 μM, 0.1 μM, 0.03 μM, 0.01 μM, 0.003 μM, and 0.001 μM, respectively).
(§3) To each reaction tube of the above PI3K family type I kinases, 6 μL of a mixture of ATP (Promega, US) and substrate PIP2:PS (final concentrations of ATP in the reaction systems of kinases PI3Kα, and PI3Kβ were 10 μM, and final concentrations of ATP in the reaction systems of kinases PI3Kδ, and PI3Kγ were 50 μM, and final concentrations of the substrate PIP2:PS were all 50 μM) was added, and reacted at 37° C. for 1 hour. The reaction buffer was 50 mM Hepes (pH 7.5) (Promega, USA), 3 mM MgCl2, 1 mM EGTA (Promega, US), 100 mM NaCl, 0.03% CHAPS (Promega, US).
(§4) 5 μL of kinase solution after reaction was placed in a 384-well plate (Corning, US), and 5 μL of ADP-Glo™ reagent (Promega, US) was added thereto and reacted at room temperature for 40 minutes to stop the kinase reaction and exhaust the remaining ATP; 10 μL of kinase detection reagent was added to convert ADP into ATP, and coupled luciferase/luciferin reaction was utilized to detect the newly synthesized ATP. Envision was utilized for readout and plotting, and Graphpad IC50 value was calculated.

PI3Kβ = target: T2, PI3Kβ (Homo sapiens, UniProt P42338); experiment: In vitro enzyme activity (ADP-Glo) against PI3Kβ; assay type: biochemical; conditions: Table 2; ATP 10 μM, PIP2:PS 50 μM; read-out: IC50 against PI3Kβ
T2 construct: purchased sigma (US)
Protocol: as §1, §2, §3, §4

PI3Kγ = target: T3, PI3Kγ (Homo sapiens, UniProt P48736); experiment: In vitro enzyme activity (ADP-Glo) against PI3Kγ; assay type: biochemical; conditions: Table 2; ATP 50 μM, PIP2:PS 50 μM; read-out: IC50 against PI3Kγ
T3 construct: purchased Invitrogen (US)
Protocol: as §1, §2, §3, §4

PI3Kδ = target: T4, PI3Kδ (Homo sapiens, UniProt O00329); experiment: In vitro enzyme activity (ADP-Glo) against PI3Kδ; assay type: biochemical; conditions: Table 2; ATP 50 μM, PIP2:PS 50 μM
T4 construct: purchased Invitrogen (US)
Protocol: as §1, §2, §3, §4

PIK3C2A = target: T5, PIK3C2A (Homo sapiens, UniProt O00443); experiment: In vitro enzyme activity (ADP-Glo) against PIK3C2A; assay type: biochemical; conditions: Table 3; ATP 50 μM, substrate PI 100 μM; read-out: IC50 PI3KC2A
T5 construct: purchased Invitrogen (US)
Protocol: as §1, with “(US). […]” for “(US).”
as §4

PIK3C2B = target: T6, PIK3C2B (Homo sapiens, UniProt O00750); experiment: In vitro enzyme activity (ADP-Glo) against PIK3C2B; assay type: biochemical; conditions: Table 3; ATP 50 μM, substrate PI 100 μM; read-out: IC50 PI3KC2B
T6 construct: purchased Invitrogen (US)
Protocol: as §1, with “(US). […]” for “(US).”
as §4

[1] = system: rat model of adjuvant arthritis; experiment: Efficacy in rat model of rheumatoid arthritis (adjuvant arthritis); assay type: in vivo, Sprague-Dawley (SD) rats; conditions: 25 mg/kg/day, oral gavage, once a day
Protocol: In this example, the experimental results of Compound 9 were tested in a rat model of adjuvant arthritis.
(1) Sprague-Dawley (SD) rats, female, weighing 180 g±20 g, were purchased from Beijing Vital River Laboratory Animal Technology Co., Ltd. and maintained in an SPL laboratory. Drinking water and litter were sterilized by autoclaving, and all operations related to the rats were performed under sterile conditions.
(2) In the vehicle group and the treatment group, 10.0 mg/ml CFA (complete Freund's adjuvant, purchased from Sigma, US) was mixed thoroughly, and 0.1 ml of the CFA was injected intracutaneously into the right rear vola pedis of each rat on day 0 to induce inflammation; the normal group was injected with saline in the same way.
(3) Body weight and paw swelling were measured every 3 or 4 days after modeling. […]
(4) The body weight and paw swelling were measured every two days after administration, and the paw swelling was measured with a paw swelling meter. […] After the inflammation, the volume of left rear foot was measured to obtain the swelling degree of the secondary paw (Δm1=|paw volume after injection−paw volume before injection|).

T3 sequence (P48736 whole entry): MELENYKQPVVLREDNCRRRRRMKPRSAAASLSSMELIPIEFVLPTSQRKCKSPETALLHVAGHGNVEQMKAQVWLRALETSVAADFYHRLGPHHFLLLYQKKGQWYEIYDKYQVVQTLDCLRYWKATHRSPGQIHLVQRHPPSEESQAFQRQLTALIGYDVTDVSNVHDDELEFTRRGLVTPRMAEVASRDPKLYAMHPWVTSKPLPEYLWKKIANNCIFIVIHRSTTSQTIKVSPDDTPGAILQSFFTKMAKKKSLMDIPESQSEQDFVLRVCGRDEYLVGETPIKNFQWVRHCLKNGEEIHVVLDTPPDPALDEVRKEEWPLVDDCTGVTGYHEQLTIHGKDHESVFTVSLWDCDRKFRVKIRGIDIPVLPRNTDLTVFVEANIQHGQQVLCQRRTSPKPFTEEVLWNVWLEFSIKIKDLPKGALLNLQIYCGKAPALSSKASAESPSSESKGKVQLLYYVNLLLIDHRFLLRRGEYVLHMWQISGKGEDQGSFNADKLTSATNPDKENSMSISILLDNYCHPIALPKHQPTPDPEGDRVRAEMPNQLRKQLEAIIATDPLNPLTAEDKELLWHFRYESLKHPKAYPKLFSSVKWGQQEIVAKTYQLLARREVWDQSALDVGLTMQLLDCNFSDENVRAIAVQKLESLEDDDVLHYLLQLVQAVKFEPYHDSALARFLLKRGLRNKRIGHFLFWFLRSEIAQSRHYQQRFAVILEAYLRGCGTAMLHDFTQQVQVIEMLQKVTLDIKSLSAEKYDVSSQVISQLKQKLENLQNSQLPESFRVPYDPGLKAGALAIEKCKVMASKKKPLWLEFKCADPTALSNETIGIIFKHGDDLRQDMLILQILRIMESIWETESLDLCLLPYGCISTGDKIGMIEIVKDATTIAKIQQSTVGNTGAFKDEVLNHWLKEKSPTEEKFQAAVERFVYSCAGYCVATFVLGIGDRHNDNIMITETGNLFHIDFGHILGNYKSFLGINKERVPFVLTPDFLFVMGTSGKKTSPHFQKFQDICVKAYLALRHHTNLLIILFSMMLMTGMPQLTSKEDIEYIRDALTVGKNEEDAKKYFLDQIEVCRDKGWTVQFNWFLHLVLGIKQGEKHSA
T2 sequence (P42338 whole entry): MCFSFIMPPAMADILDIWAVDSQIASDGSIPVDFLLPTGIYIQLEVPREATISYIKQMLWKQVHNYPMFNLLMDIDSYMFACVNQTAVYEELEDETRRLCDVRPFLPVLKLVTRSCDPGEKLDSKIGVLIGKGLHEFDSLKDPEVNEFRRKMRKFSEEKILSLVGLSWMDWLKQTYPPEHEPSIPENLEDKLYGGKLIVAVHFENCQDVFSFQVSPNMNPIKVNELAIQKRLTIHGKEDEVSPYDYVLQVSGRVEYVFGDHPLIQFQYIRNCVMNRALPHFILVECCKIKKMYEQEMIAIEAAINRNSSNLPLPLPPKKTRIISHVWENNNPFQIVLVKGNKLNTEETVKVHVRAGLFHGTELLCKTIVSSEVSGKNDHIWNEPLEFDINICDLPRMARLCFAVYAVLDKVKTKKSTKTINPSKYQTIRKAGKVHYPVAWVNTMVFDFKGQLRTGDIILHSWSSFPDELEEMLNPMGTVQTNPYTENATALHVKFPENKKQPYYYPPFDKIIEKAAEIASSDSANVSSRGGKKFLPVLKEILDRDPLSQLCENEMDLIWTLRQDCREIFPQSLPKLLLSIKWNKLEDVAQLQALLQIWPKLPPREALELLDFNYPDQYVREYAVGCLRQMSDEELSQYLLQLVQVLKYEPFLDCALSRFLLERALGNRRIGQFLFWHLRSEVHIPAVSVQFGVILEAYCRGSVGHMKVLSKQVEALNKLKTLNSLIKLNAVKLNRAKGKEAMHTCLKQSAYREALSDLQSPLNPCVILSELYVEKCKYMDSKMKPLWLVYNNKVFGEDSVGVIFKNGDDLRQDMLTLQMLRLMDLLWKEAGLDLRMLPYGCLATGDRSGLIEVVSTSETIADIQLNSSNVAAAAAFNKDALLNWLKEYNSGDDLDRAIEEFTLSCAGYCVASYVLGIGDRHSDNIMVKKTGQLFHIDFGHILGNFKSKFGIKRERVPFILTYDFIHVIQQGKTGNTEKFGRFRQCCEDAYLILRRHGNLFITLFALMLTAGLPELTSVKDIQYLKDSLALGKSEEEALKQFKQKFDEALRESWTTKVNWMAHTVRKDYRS
T2 sequence (P27986 whole entry partner): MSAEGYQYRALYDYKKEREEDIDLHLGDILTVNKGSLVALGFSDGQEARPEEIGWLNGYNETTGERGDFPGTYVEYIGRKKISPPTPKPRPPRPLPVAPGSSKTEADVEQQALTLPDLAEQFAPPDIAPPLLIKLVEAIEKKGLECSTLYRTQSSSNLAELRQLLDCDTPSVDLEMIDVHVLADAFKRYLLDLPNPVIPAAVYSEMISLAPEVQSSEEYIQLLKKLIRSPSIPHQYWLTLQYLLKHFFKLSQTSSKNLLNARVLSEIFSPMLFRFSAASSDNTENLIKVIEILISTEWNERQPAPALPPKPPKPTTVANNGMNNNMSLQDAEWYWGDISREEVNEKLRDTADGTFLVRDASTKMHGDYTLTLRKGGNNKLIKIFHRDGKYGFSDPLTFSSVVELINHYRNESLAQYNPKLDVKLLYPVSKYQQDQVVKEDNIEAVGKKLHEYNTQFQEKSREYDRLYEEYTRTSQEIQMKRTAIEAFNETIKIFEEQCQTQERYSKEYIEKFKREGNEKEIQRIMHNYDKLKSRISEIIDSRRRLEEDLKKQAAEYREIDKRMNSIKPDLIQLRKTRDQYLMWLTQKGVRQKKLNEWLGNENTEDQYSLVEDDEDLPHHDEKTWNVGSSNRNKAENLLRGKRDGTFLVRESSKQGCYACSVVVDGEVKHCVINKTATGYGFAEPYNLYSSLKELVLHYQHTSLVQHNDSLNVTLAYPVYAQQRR
T1 sequence (P42336 whole entry): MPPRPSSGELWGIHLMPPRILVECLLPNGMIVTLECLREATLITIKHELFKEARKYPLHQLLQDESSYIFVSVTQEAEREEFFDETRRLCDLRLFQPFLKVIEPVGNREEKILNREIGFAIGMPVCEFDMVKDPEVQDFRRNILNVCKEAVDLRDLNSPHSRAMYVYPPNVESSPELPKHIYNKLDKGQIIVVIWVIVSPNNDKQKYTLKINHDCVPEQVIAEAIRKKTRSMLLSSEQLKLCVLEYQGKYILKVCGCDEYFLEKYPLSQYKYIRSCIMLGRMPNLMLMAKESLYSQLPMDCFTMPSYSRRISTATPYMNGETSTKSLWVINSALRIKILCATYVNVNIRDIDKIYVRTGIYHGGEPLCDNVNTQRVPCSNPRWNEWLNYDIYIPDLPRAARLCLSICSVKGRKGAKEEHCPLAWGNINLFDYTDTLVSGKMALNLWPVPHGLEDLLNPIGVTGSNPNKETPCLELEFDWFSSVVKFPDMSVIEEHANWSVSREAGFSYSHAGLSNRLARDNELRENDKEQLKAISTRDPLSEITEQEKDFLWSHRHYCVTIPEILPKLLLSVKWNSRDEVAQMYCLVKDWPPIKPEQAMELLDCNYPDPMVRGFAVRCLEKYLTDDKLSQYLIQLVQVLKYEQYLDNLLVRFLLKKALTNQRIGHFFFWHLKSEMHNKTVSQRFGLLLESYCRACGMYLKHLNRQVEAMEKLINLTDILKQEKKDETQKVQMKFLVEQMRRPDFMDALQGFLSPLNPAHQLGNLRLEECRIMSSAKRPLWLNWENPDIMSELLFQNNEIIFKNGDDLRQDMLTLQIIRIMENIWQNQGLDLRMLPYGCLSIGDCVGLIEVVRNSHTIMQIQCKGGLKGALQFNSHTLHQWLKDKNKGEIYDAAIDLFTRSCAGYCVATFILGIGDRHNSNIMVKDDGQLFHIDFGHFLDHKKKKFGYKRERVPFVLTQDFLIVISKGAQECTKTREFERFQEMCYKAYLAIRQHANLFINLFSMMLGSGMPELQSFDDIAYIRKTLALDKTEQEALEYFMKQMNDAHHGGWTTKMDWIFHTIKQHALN
T1 sequence (P27986 whole entry partner): as the sequence (P27986 whole entry partner) above
T4 sequence (O00329 whole entry): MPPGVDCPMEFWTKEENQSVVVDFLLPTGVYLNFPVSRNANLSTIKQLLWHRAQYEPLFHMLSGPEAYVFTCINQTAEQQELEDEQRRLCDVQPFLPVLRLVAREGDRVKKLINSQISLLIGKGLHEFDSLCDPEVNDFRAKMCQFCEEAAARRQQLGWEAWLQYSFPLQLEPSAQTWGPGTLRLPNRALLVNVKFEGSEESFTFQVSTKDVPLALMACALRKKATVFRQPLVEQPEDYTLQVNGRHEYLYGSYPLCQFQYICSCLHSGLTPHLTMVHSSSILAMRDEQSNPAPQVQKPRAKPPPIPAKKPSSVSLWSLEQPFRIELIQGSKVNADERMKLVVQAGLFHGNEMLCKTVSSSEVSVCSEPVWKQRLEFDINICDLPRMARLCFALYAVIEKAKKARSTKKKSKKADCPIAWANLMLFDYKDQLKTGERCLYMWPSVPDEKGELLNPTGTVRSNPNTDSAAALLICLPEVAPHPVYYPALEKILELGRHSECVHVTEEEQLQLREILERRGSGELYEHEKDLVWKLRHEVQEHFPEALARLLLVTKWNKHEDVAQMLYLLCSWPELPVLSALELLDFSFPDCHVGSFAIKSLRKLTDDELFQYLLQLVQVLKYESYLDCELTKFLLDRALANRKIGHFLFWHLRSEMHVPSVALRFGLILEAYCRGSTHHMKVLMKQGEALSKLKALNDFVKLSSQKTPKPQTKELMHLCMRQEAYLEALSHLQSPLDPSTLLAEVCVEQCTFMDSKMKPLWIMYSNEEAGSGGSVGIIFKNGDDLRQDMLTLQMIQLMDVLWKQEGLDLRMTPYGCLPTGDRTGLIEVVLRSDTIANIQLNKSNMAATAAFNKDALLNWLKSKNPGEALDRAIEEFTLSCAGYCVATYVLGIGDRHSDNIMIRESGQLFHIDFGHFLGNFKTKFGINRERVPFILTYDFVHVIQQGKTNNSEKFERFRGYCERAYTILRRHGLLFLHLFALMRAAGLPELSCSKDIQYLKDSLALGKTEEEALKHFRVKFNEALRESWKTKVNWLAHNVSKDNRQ
T4 sequence (P27986 whole entry partner): as the sequence (P27986 whole entry partner) above

COc1ccc(-c2nn(C(C)c3nc4cccc(F)c4c(=O)n3C3CCC3)c3ncnc(N)c23)cc1F (centres unmarked) [Compound 1, 2-(1-(4-amino-3-(3-fluoro-4-methoxyphenyl)-1H-pyrazolo [3,4-d]pyrimidin-1-yl)ethyl)-3-cyclobutyl-5-fluoroquinazolin-4(3H)-one]
IC50 (PI3Kα): 7.41 µM | IC50 (PI3Kβ): 2.96 µM | IC50 (PI3Kγ): 4.09 µM | IC50 (PI3Kδ): 0.0274 µM

COc1ccc(-c2nn(C(C)c3nc4cccc(F)c4c(=O)n3C3CCCC3)c3ncnc(N)c23)cc1F (centres unmarked) [Compound 5, 2-(1-(4-amino-3-(3-fluoro-4-methoxyphenyl)-1H-pyrazolo [3,4-d]pyrimidin-1-yl)ethyl)-3-cyclopentyl-5-fluoroquinazolin-4(3H)-one]
IC50 (PI3Kα): 5.52 µM | IC50 (PI3Kβ): > 10 µM | IC50 (PI3Kγ): 1.72 µM | IC50 (PI3Kδ): 0.0186 µM

COc1ccc(-c2nn(Cc3nc4cccc(F)c4c(=O)n3C3CC3)c3ncnc(N)c23)cc1F [Compound 6, 2-((4-amino-3-(3-fluoro-4-methoxyphenyl)-1H-pyrazolo [3,4-d]pyrimidin-1-yl)methyl)-3-cyclopropyl-5-fluoroquinazolin-4(3H)-one]
IC50 (PI3Kα): 1.69 µM | IC50 (PI3Kβ): 0.523 µM | IC50 (PI3Kγ): 0.299 µM | IC50 (PI3Kδ): 0.031 µM

COc1ccc(-c2nn(C(C)c3nc4cccc(F)c4c(=O)n3C3CC3)c3ncnc(N)c23)cc1F (centres unmarked) [Compound 8, 2-(1-(4-amino-3-(3-fluoro-4-methoxyphenyl)-1H-pyrazolo [3,4-d]pyrimidin-1-yl)ethyl)-3-cyclopropyl-5-fluoroquinazolin-4(3H)-one]
IC50 (PI3Kα): 1.72 µM | IC50 (PI3Kβ): 1.3 µM | IC50 (PI3Kγ): 0.148 µM | IC50 (PI3Kδ): 0.014 µM

CCC(c1nc2cccc(F)c2c(=O)n1C1CC1)n1nc(-c2ccc(OC)c(F)c2)c2c(N)ncnc21 (centres unmarked) [Compound 9, 2-(1-(4-amino-3-(3-fluoro-4-methoxyphenyl)-1H-pyrazolo [3,4-d]pyrimidin-1-yl)propyl)-3-cyclopropyl-5-fluoroquinazolin-4(3H)-one]
IC50 (PI3Kα): 3.35 µM | IC50 (PI3Kβ): 1.16 µM | IC50 (PI3Kγ): 0.685 µM | IC50 (PI3Kδ): 0.0173 µM | IC50 (PIK3C2A): > 10 µM | IC50 (PIK3C2B): 9.96 µM | effect on the body weight of rats ([1]; 14 days, FIG. 1a): no significant effect | paw swelling as compared with the vehicle group ([1]; after 14 days of administration, FIG. 1b): significantly reduced

CCC(c1nc2ccccc2c(=O)n1C1CC1)n1nc(-c2ccc(OC)c(F)c2)c2c(N)ncnc21 (centres unmarked) [Compound 11, 2-(1-(4-amino-3-(3-fluoro-4-methoxyphenyl)-1H-pyrazolo [3,4-d]pyrimidin-1-yl)propyl)-3-cyclopropylquinazolin-4(3H)-one]
IC50 (PI3Kβ): 0.27 µM | IC50 (PI3Kγ): 0.389 µM | IC50 (PI3Kδ): 0.0183 µM

COc1ccc(-c2nn(C(C)c3nc4cccc(F)c4c(=O)n3C3CCCC3)c3ncnc(N)c23)cc1 (centres unmarked) [Compound 14, 2-(1-(4-amino-3-(4-methoxyphenyl)-1H-pyrazolo [3,4-d]pyrimidin-1-yl)ethyl)-3-cyclopentyl-5-fluoroquinazolin-4(3H)-one]
IC50 (PI3Kβ): > 10 µM | IC50 (PI3Kγ): > 10 µM | IC50 (PI3Kδ): 0.0319 µM

COc1ccc(-c2nn(C(C)c3nc4cccc(F)c4c(=O)n3C3CCC3)c3ncnc(N)c23)cc1 (centres unmarked) [Compound 19, 2-(1-(4-amino-3-(4-methoxyphenyl)-1H-pyrazolo [3,4-d]pyrimidin-1-yl)ethyl)-3-cyclobutyl-5-fluoroquinazolin-4(3H)-one]
IC50 (PI3Kβ): 0.547 µM | IC50 (PI3Kγ): 0.689 µM | IC50 (PI3Kδ): 0.0379 µM

COc1ccc(-c2nn(C(C)c3nc4ccc(F)cc4c(=O)n3C3CC3)c3ncnc(N)c23)cc1F (centres unmarked) [Compound 22, 2-(1-(4-amino-3-(3-fluoro-4-methoxyphenyl)-1H-pyrazolo [3,4-d]pyrimidin-1-yl)ethyl)-3-cyclopropyl-6-fluoroquinazolin-4(3H)-one]
IC50 (PI3Kα): 1.69 µM | IC50 (PI3Kβ): 0.344 µM | IC50 (PI3Kγ): 0.485 µM | IC50 (PI3Kδ): 0.0041 µM

CCC(c1nc2ccc(F)cc2c(=O)n1C1CC1)n1nc(-c2ccc(OC)c(F)c2)c2c(N)ncnc21 (centres unmarked) [Compound 23, 2-(1-(4-amino-3-(3-fluoro-4-methoxyphenyl)-1H-pyrazolo [3,4-d]pyrimidin-1-yl)propyl)-3-cyclopropyl-6-fluoroquinazolin-4(3H)-one]
IC50 (PI3Kα): 6.44 µM | IC50 (PI3Kβ): 0.999 µM | IC50 (PI3Kγ): 0.922 µM | IC50 (PI3Kδ): 0.0095 µM

COc1ccc(-c2nn(C(C)c3nc4cccc(F)c4c(=O)n3C3CCC3)c3ncnc(N)c23)cc1OC (centres unmarked) [Compound 27, 2-(1-(4-amino-3-(3,4-dimethoxyphenyl)-1H-pyrazolo [3,4-d]pyrimidin-1-yl)ethyl)-3-cyclobutyl-5-fluoroquinazolin-4(3H)-one]
IC50 (PI3Kα): 1.1 µM | IC50 (PI3Kγ): 0.434 µM | IC50 (PI3Kδ): 0.0103 µM

COc1ccc(-c2nn(C(C)c3nc4ccccc4c(=O)n3C3CCC3)c3ncnc(N)c23)cc1 (centres unmarked) [Compound 37, 2-(1-(4-amino-3-(4-methoxyphenyl)-1H-pyrazolo [3,4-d]pyrimidin-1-yl)ethyl)-3-cyclobutylquinazolin-4(3H)-one]
IC50 (PI3Kα): 4.21 µM | IC50 (PI3Kβ): 3.28 µM | IC50 (PI3Kγ): 0.753 µM | IC50 (PI3Kδ): 0.001 µM

COc1ccc(-c2nn(C(C)c3nc4ccccc4c(=O)n3C3CCC3)c3ncnc(N)c23)cc1OC (centres unmarked) [Compound 38, 2-(1-(4-amino-3-(3,4-dimethoxyphenyl)-1H-pyrazolo [3,4-d]pyrimidin-1-yl)ethyl)-3-cyclobutylquinazolin-4(3H)-one]
IC50 (PI3Kα): 2.23 µM | IC50 (PI3Kβ): 0.581 µM | IC50 (PI3Kγ): 0.261 µM | IC50 (PI3Kδ): 0.00959 µM

COc1ccc(-c2nn(C(C)c3nc4ccc(F)cc4c(=O)n3C3CC3)c3ncnc(N)c23)cc1 (centres unmarked) [Compound 42, 2-(1-(4-amino-3-(4-methoxyphenyl)-1H-pyrazolo [3,4-d]pyrimidin-1-yl)ethyl)-3-cyclopropyl-6-fluoroquinazolin-4(3H)-one]
IC50 (PI3Kα): 3.77 µM | IC50 (PI3Kβ): 0.69 µM | IC50 (PI3Kγ): 0.576 µM | IC50 (PI3Kδ): 0.0083 µM

CC[C@@H](c1nc2cccc(F)c2c(=O)n1C1CC1)n1nc(-c2ccc(OC)c(F)c2)c2c(N)ncnc21 [Compound 81, 2-((S)-1-(4-amino-3-(3-fluoro-4-methoxyphenyl)-1H-pyrazolo [3,4-d]pyrimidin-1-yl)propyl)-3-cyclopropyl-5-fluoroquinazolin-4(3H)-one]
IC50 (PI3Kβ): 0.79 µM | IC50 (PI3Kγ): 0.471 µM | IC50 (PI3Kδ): 0.0164 µM

— patent publication US12221448B2, “Selective PI3Kδ inhibitor and use thereof” (TARAPEUTICS SCIENCE INC., priority 2018, dated 2025)
